{
  "source": "patent US20130150430A1",
  "about": "“Methods for Impairing the P53/HDM2 Auto-Regulatory Loop in Multiple Myeloma Development Using mIR-192, mIR-194 and mIR-215” (THE OHIO STATE UNIVERSITY, priority 2011, published 2013)",
  "format_in_all_cases": "cell-based, human",
  "key": {"[1]": {"system": "MM cells carrying WT TP53 (MM1s, NCI-H929, KMS28BM)", "experiment": "MTS cell viability assay after miRNA transfection", "details": "transfected cells vs scrambled sequences, 24, 48, 72 hrs after transfection", "description": "(§1) FIG. 3A, FIG. 3B, FIG. 3C, FIG. 3D: MTS assay performed in MM1s (FIG. 3A), NCI-929 (FIG. 3B), KMS28BM (FIG. 3C) and RPMI-8226 (FIG. 3D) cell lines. Cells were transfected with miR-192, miR-215 and scrambled sequence (Scr) and were harvested at 24, 48, and 72 hrs after transfection. P values are indicated.\n(§2) CD-138+ PCs obtained from new diagnosed MM subjects and isolated as previously described were transfected by using nucleoporation (LONZA) Cell Line Nucleofector Kit V (Cat#VCA-1003). MM1s, NCI-H929 cell lines were transfected by using nucleoporation (LONZA) Cell Line Nucleofector Kit V (Cat#VCA-1003). Instead for U266, KMS-28BM and RPMI-8226 Cell Line Nucleofector Kit C (Cat#VCA-1004) was used. Specifically for primary cells 1×10^6 CD-138+ PCs were resuspended in […] of V solution and 100 nM miRNA precursors (Ambion) was used for the transfection reaction. For MM cell lines 5×10^6 cells were re-suspended in 100 μl of nucleofector solution V/C and 100 nM of miRNAs precursor or 100 nM LNA miRNA antisense oligonucleotides (Ambion) was used for each transfection point. Protein lysates and total RNA were collected at the time indicated. miRNA processing and expression were verified by northern blot and stem-loop qRT-PCR.\n(§3) Cells were plated in 96-well plates in triplicate and incubated at 37° C. in a 5% CO2 incubator. Cell viability was examined with 3-(4,5-dimethylthiazol-2-yl)-2,5-dipheniltetrazolium bromide (MTT)-Cell Titer 96AQueous One Solution Cell Proliferation Assay (Promega), according to the manufacturer's protocol. Metabolically active cells were detected by adding 20 μl of MTT to each well. After 1 hr incubation, the plates were analyzed in a Multi label Counter (Bio-Rad Laboratories). Apoptosis was assessed using Annexin V-FITC apoptosis detection kits followed by flow cytometric analysis. For Annexin V staining, MM cells (pre-miRNAs pool or Scrambled transfected) were treated with MI-219 at different concentrations (0, 2.5, 5.0, 10 μM) for 24 hr and then treated as for DNA content analysis, except that fixation was omitted and the Cells (5×10^5 per sample) were resuspended in PBS containing 25 μg/ml Annexin-V-FLUOS (Roche Applied Science) and 50 μg/ml PI prior to FACS analysis. The percentage of apoptosis indicated was corrected for background levels found in the corresponding untreated controls. The percentage of apoptotic cells was expressed as the mean±SD of three experiments."}, "[2]": {"system": "RPMI-8226 cells expressing mutant TP53", "experiment": "MTS cell viability assay after miRNA transfection", "details": "transfected RPMI-8226 cells", "description": "as §1, §2, §3"}, "[3]": {"system": "MDM2 mRNA in MM1s and NCI-H929 cells", "experiment": "RT-PCR of MDM2 mRNA after miRNA transfection and Nutlin-3a", "details": "transfected cells at 6 and 12 hr of Nutlin-3a treatment, both cell lines", "description": "FIG. 4F: MDM2 mRNA expression normalized for GAPDH mRNA expression in MM1s and NCIH929 cells miRNAs or Scr transfected after Nutlin-3a treatment (6-12 hr).\nRNA was isolated from cell lines using Trizol reagent (Invitrogen) as per the manufacturer's protocol. An aliquot of 5 μg RNA was then used for cDNA synthesis using the SuperScript first strand cDNA synthesis kit (Invitrogen). RT-PCRs were carried out using ABI Prism 7900HT sequence detection systems with Applied Biosystems TaqMan Gene expression assays (p21 (CDKN1A):Hs01121172_ml; MYC:Hs99999003_ml; TP53:Hs00153349_ml; MDM2: Hs01066938_ml)."}, "[4]": {"system": "NCI-H929 and RPMI-8226 IGF-1 treated cells", "experiment": "Adhesion assay on fibronectin in response to IGF-1", "details": "ectopic expression, vs Scr control", "description": "FIG. 21A, FIG. 21B: MM1s and RPMI-8226 cells (pre-miRNA-192, -194, -215, Scr sequence-transfected) at 48 hr after transfection were harvested, treated with calcein and incubated with IGF-1 (50 ng/ml) and their ability to adhere to fibronectin plates was assessed by fluorescence assay. MM1s (FIG. 21A) and RPMI-8226 (FIG. 21B) with ectopic re-expression of miR-192, 215 and also miR-194 lost their ability to respond to IGF-1 treatment compare to Scr sequence.\nBefore adhesion, MM cell lines were starved overnight in RPMI 1640/0.5% BSA, without loss of viability. Cells (5×10^6/ml) were labeled with calcein-a.m. (Molecular Probes, Eugene, Oreg.) for 30 min at 37° C., washed, and resuspended in adhesion medium (RPMI 1640/10% FBS). Cells were stimulated with or without IGF-1 at 0-200 ng/ml for 20 min and added in triplicate to Fibronectin-coated 48 well plates (BD Biosciences #354506, Bedford, Mass.) at 37° C. for 30 min, and unbound cells were removed by four washes with RPMI1640. The absorbance of each well was measured using 492/520 nm filter set with a fluorescence plate reader (Wallac VICTOR2; Perkin-Elmer, Boston, Mass.)."}},
  "data": [
    {"substance": "miR-215: microRNA, p53-activated, down-regulated in MM; transfected as miRNA precursor (Ambion) or lentivector; SEQ ID NO:58 (AUGACCUAUGAAUUGACAGAC; listed as RNA, chemistry not given here; listed as Homo sapiens)", "values": [
      {"measurement": "growth arrest (MTS assay)", "setting": "[1]", "result": "significant growth arrest"},
      {"measurement": "growth arrest (MTS assay)", "setting": "[2]", "result": "did not detect this effect"},
      {"measurement": "MDM2 mRNA levels", "setting": "[3]", "result": "strongly reduced"},
      {"measurement": "cell adhesion", "setting": "[4]", "result": "significant decrease"}
    ]},
    {"substance": "miR-192: microRNA, p53-activated, down-regulated in MM; transfected as miRNA precursor (Ambion) or lentivector; SEQ ID NO:56 (CUGACCUAUGAAUUGACAGCC; listed as RNA, chemistry not given here; listed as Homo sapiens)", "values": [
      {"measurement": "growth arrest (MTS assay)", "setting": "[1]", "result": "significant growth arrest"},
      {"measurement": "growth arrest (MTS assay)", "setting": "[2]", "result": "did not detect this effect"},
      {"measurement": "MDM2 mRNA levels", "setting": "[3]", "result": "strongly reduced"},
      {"measurement": "cell adhesion", "setting": "[4]", "result": "significant decrease"}
    ]}
  ]
}
